IC50 data for 6 compounds are collected here from ChEMBL document CHEMBL5126642, “Triazine-Based Covalent DNA-Encoded Libraries for Discovery of Covalent Inhibitors of Target Proteins” (ACS Med Chem Lett, 2022).

The target of test [1] is T1, Tyrosine-protein kinase JAK3 (Homo sapiens, UniProt P52333).
T1 sequence (P52333 whole entry): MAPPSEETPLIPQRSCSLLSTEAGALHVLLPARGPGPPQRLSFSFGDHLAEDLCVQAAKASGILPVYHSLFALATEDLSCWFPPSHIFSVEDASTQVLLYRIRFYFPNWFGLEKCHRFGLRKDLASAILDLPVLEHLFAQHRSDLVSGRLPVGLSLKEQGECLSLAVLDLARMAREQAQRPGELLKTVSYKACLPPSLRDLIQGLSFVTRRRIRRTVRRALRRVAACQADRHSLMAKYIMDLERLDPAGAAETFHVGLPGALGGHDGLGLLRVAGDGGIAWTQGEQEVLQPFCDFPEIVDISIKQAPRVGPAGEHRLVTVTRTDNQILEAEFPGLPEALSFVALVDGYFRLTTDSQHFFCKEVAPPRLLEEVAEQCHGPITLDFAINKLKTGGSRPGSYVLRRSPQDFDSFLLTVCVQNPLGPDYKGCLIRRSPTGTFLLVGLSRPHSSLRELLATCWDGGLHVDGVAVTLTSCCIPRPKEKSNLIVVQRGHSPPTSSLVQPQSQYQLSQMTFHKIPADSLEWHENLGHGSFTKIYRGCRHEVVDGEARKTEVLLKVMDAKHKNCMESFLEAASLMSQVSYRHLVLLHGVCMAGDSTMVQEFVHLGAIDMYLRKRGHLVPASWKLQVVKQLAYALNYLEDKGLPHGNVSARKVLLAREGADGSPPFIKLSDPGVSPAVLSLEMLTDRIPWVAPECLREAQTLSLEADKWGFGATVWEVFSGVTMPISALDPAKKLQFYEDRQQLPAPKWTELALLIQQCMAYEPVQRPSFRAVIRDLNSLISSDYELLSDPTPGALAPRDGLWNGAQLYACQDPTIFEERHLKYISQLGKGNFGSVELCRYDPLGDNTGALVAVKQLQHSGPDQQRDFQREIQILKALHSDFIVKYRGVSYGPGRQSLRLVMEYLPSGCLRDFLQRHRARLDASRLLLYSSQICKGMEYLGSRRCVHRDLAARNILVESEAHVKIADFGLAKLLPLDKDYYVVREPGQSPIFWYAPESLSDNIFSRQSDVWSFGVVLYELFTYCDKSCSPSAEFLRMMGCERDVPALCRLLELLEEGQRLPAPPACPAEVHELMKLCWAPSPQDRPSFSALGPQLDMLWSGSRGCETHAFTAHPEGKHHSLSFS
Kind of test: Inhibition of JAK3 (unknown origin) using TK peptide as substrate incubated for 1 hr in presence of ATP by HTRF assay. For orientation: Time-resolved FRET reads energy transfer from a long-lived donor to a nearby acceptor.

The target of test [2] is Tyrosine-protein kinase BTK (Homo sapiens, UniProt Q06187). Kind of test: Inhibition of BTK (unknown origin) using TK peptide as substrate incubated for 1 hr in presence of ATP by HTRF assay.
Tyrosine-protein kinase BTK, sequence (Q06187 whole entry): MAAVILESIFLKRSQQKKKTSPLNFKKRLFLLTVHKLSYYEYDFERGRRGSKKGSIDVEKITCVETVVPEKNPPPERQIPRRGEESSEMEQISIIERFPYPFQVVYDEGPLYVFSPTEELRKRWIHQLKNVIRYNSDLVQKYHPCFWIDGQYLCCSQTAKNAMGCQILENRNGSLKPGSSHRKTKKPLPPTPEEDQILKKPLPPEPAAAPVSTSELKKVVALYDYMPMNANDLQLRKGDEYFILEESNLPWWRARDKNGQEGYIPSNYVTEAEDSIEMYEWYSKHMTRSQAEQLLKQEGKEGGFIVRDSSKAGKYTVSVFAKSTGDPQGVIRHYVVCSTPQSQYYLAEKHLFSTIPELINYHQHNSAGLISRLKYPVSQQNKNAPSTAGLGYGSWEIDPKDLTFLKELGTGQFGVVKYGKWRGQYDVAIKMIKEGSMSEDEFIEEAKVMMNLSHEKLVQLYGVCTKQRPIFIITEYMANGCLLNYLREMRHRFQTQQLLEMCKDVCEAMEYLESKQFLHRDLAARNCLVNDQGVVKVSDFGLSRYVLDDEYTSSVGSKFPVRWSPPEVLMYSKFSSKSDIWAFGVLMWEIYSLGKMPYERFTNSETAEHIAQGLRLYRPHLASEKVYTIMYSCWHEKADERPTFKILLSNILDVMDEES
The target in test [3] is Peptidyl-prolyl cis-trans isomerase NIMA-interacting 1 (Homo sapiens, UniProt Q13526). Kind of test: Inhibition of GST-tagged Pin1 (unknown origin) using Suc-AEPF-pNA peptide as substrate incubated for 3 hrs.
Peptidyl-prolyl cis-trans isomerase NIMA-interacting 1, sequence (Q13526 whole entry): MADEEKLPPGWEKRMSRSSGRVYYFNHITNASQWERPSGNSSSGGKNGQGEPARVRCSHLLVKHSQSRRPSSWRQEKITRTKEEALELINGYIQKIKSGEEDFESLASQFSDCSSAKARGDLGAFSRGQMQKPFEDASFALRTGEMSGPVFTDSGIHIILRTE

SMILES strings stand for the structures.

The IC50 is the midpoint of a concentration-inhibition curve. Consider `CNc1nc(NCC(NC(=O)CCl)c2ccccc2)nc(Nc2cc(C(C)(C)C)[nH]n2)n1` (stereo not given), for which the figures for the IC50 in test [1] and in test [2] were 32.6 nM and 638 nM, respectively.
With `C=CC(=O)Nc1cccc(CNc2nc(NC)nc(Nc3cc(C(C)(C)C)[nH]n3)n2)c1`, the values for the IC50 in test [1] and in test [2] were 6.16 nM and 98.3 nM, respectively.
With `CNc1nc(NCc2cccc(NC(=O)CCl)c2)nc(Nc2cc(C(C)(C)C)[nH]n2)n1`, the results for the IC50 in test [1] and in test [2] were 8.97 nM and 1900 nM, respectively.
For `C=CC(=O)N1CC2CC1CN2c1nc(NC)nc(Nc2cc[nH]n2)n1` (stereo not given), the IC50 in test [1] stood at 699 nM; in test [2], 16.1 nM.
In the case of `CNc1nc(NC(c2ccccc2)c2cccc(S(C)(=O)=O)c2)nc(N2CCN(C(=O)CCl)CC2)n1` (stereo not given), the IC50 in test [3] came to 3200 nM.
On the same count and under the same terms, in the case of `CNc1nc(Nc2ccc3cn[nH]c3c2)nc(N2CC3CC2CN3C(=O)CCl)n1` (stereo not given) it was 1690 nM.
